Measurements taken from ChEMBL document CHEMBL1201862, “PubChem BioAssay data set” (2004).
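Cells were grown in 96-well plates and exposed to each compound for 48 hours at five concentrations; endpoints were interpolated linearly between bracketing concentrations, or set to the highest concentration if not reached. GI50 marks 50% less growth.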 Calls of active or inactive are those of the source. Rule as the data show it: active = GI50 up to about 1.1 µM and inactive = higher.

How the values were obtained:
Experiment in all cases: inhibition of tumour cell growth, NCI panel, 48 h
[1] = system: DMS-114
[2] = system: DMS-273
[3] = system: HOP-18
[4] = system: KM-20L2
[5] = system: LXFL 529
[6] = system: M19-MEL
[7] = system: SNB-78
[8] = system: XF498
[9] = system: RXF 631

Row | SMILES | GI50 [1] | GI50 [2] | GI50 [3] | GI50 [4] | GI50 [5] | GI50 [6] | GI50 [7] | GI50 [8] | GI50 [9]
1 | Cc1noc(C)c1CCCOC1COc2ccccc2OCCOCCOc2ccccc2OC1 | > 100 µM (inactive) | > 100 µM (inactive) | > 100 µM (inactive) | > 100 µM (inactive) | > 100 µM (inactive) | > 100 µM (inactive) | > 100 µM (inactive) | > 100 µM (inactive) | –
2 | O=C(O)CCC1CCc2cccc3occ1c23 (configuration not stated) | > 100 µM (inactive) | > 100 µM (inactive) | – | > 100 µM (inactive) | > 100 µM (inactive) | > 100 µM (inactive) | > 100 µM (inactive) | – | > 100 µM (inactive)
3 | Cc1cc2c(c(N)c1C)C(=O)c1ccccc1C2=O | 32.1 µM (inactive) | 24.4 µM (inactive) | 1.56 µM (inactive) | 25 µM (inactive) | 28.8 µM (inactive) | 65.5 µM (inactive) | > 100 µM (inactive) | – | –
4 | C/C(=N\NC(=N)N)C(CN(C)C)C(c1ccccc1)c1c(O)c2ccccc2oc1=O (configuration not stated) | > 100 µM (inactive) | > 100 µM (inactive) | > 100 µM (inactive) | > 100 µM (inactive) | > 100 µM (inactive) | > 100 µM (inactive) | > 100 µM (inactive) | > 100 µM (inactive) | –
5 | CC(=O)OC1[C@H]2c3cc4c(cc3CN3CCC(=C[C@@H]1O)C23)OCO4 (some centres not stated) | – | > 100 µM (inactive) | – | 77.8 µM (inactive) | 48.6 µM (inactive) | > 100 µM (inactive) | 54.2 µM (inactive) | – | –
6 | C[N+]1(C)C/C(=C\c2ccncc2)C(=O)/C(=C/c2ccncc2)C1 | > 100 µM (inactive) | > 100 µM (inactive) | > 100 µM (inactive) | > 100 µM (inactive) | > 100 µM (inactive) | > 100 µM (inactive) | > 100 µM (inactive) | – | –
7 | CC(C)c1ccc(/C=C(\NC(=O)c2ccccc2)c2nc3ccccc3[nH]2)cc1 | 25.3 µM (inactive) | 37.9 µM (inactive) | 26.4 µM (inactive) | 58.1 µM (inactive) | 31.8 µM (inactive) | 33.3 µM (inactive) | 42.9 µM (inactive) | 55.3 µM (inactive) | 23.6 µM (inactive)
8 | O=C(O)CCC(=O)N1C/C(=C\c2ccccc2)C(=O)/C(=C/c2ccccc2)C1 | 2.18 µM (inactive) | 2.16 µM (inactive) | 5.55 µM (inactive) | 2.92 µM (inactive) | 2.67 µM (inactive) | 1.75 µM (inactive) | 7.24 µM (inactive) | 2.7 µM (inactive) | 3.66 µM (inactive)
9 | Nc1c(-c2nc3ccccc3s2)[n+]([O-])c2ccccc2[n+]1[O-] | 34.2 µM (inactive) | – | 23.5 µM (inactive) | 48.2 µM (inactive) | 28.4 µM (inactive) | 28 µM (inactive) | 63 µM (inactive) | – | –
10 | COc1ccc(/C=C/C(=O)c2c(-c3ccccc3)nn(C)c(=O)c2N2CCCCC2)cc1 | 14.6 µM (inactive) | 15.9 µM (inactive) | 20.1 µM (inactive) | 14.3 µM (inactive) | 16.6 µM (inactive) | 25.3 µM (inactive) | – | – | 23.5 µM (inactive)
11 | c1ccc(C2C3=C(Nc4ncnn42)c2ccccc2C3)cc1 (configuration not stated) | 7.1 µM (inactive) | 12.1 µM (inactive) | 56.1 µM (inactive) | 7.89 µM (inactive) | – | 9.75 µM (inactive) | > 100 µM (inactive) | 15.4 µM (inactive) | > 100 µM (inactive)
12 | CCOC(=N)CC(=O)Nc1ccc(Cl)cc1 | – | > 100 µM (inactive) | 1.73 µM (inactive) | > 100 µM (inactive) | > 100 µM (inactive) | > 100 µM (inactive) | > 100 µM (inactive) | > 100 µM (inactive) | –
13 | O=C1C2c3[nH]c4ccccc4c3[C@@H]3CCCCCCCCCCC3C2C(=O)N1c1ccccc1 (some centres not stated) | 16.9 µM (inactive) | 27.3 µM (inactive) | 41.5 µM (inactive) | – | 13.5 µM (inactive) | 22.2 µM (inactive) | 8.53 µM (inactive) | – | 12.6 µM (inactive)
14 | O=C(/C=C/c1c(O)ccc2ccccc12)c1ccccc1 | > 100 µM (inactive) | > 100 µM (inactive) | 36.8 µM (inactive) | > 100 µM (inactive) | > 100 µM (inactive) | 29.4 µM (inactive) | > 100 µM (inactive) | > 100 µM (inactive) | > 100 µM (inactive)
15 | CCC1CCc2c(OC)ccc(OCC(=O)O)c2C1=O (configuration not stated) | > 100 µM (inactive) | > 100 µM (inactive) | – | – | > 100 µM (inactive) | > 100 µM (inactive) | > 100 µM (inactive) | > 100 µM (inactive) | –
16 | CC(=O)Nc1ccc(/C=c2\sc3nnc(-c4cccnc4)n3c2=O)cc1 | 17.9 µM (inactive) | 25.1 µM (inactive) | 19.1 µM (inactive) | 17.5 µM (inactive) | 15.9 µM (inactive) | 18.1 µM (inactive) | 34.4 µM (inactive) | – | 18.1 µM (inactive)
17 | CCc1ccc(/N=C\c2cc(OC)c(OC)c(OC)c2)cc1 | 40.4 µM (inactive) | > 100 µM (inactive) | > 100 µM (inactive) | > 100 µM (inactive) | 51.9 µM (inactive) | > 100 µM (inactive) | > 100 µM (inactive) | > 100 µM (inactive) | –
18 | Cc1cc2cc(Cl)ccc2nc1C(=O)c1ccccc1 | > 100 µM (inactive) | > 100 µM (inactive) | > 100 µM (inactive) | > 100 µM (inactive) | > 100 µM (inactive) | > 100 µM (inactive) | > 100 µM (inactive) | > 100 µM (inactive) | > 100 µM (inactive)
19 | BrCC[N+]12CCCN1CCC2 | – | 18.7 µM (inactive) | 8.73 µM (inactive) | 20.6 µM (inactive) | 2.88 µM (inactive) | 16.9 µM (inactive) | 16.2 µM (inactive) | – | 21.1 µM (inactive)
20 | Cc1cc2c(C)nn(Cc3ccccc3)c2c(C(=O)O)c1C | – | > 100 µM (inactive) | > 100 µM (inactive) | > 100 µM (inactive) | > 100 µM (inactive) | > 100 µM (inactive) | > 100 µM (inactive) | > 100 µM (inactive) | > 100 µM (inactive)
21 | CCOC(=O)CC1=N/C(=N/c2cc(Cl)ccc2Cl)SC1 | 38.5 µM (inactive) | > 100 µM (inactive) | > 100 µM (inactive) | > 100 µM (inactive) | > 100 µM (inactive) | > 100 µM (inactive) | > 100 µM (inactive) | > 100 µM (inactive) | –
22 | CCCC(=O)OC[n+]1ccc2c(C)c3[nH]c4ccccc4c3c(C)c2c1 | 0.641 µM (active) | 0.101 µM (active) | 1.09 µM (active) | 0.478 µM (active) | 0.57 µM (active) | > 100 µM (inactive) | 1.1 µM (active) | – | 0.378 µM (active)
23 | COc1ccc(C2=Nc3ccccc3NC(=O)C2)cc1 | 20.7 µM (inactive) | 27.4 µM (inactive) | > 100 µM (inactive) | 55.7 µM (inactive) | > 100 µM (inactive) | 48.3 µM (inactive) | 25.2 µM (inactive) | 20.1 µM (inactive) | > 100 µM (inactive)
24 | COc1cc(C2C(Cl)C(=O)N2NC(=O)Cc2ccccc2)cc(Br)c1O (configuration not stated) | 45 µM (inactive) | > 100 µM (inactive) | 71.6 µM (inactive) | > 100 µM (inactive) | 86.3 µM (inactive) | > 100 µM (inactive) | > 100 µM (inactive) | > 100 µM (inactive) | –
25 | CCOC(=O)Nn1c(C)cc(C(=O)OC)c1C | > 100 µM (inactive) | > 100 µM (inactive) | – | > 100 µM (inactive) | > 100 µM (inactive) | > 100 µM (inactive) | > 100 µM (inactive) | > 100 µM (inactive) | –
26 | COC(=O)c1onc(-c2c(OC)cc(OC)cc2OC)c1C(=O)OC | > 100 µM (inactive) | > 100 µM (inactive) | > 100 µM (inactive) | > 100 µM (inactive) | > 100 µM (inactive) | > 100 µM (inactive) | > 100 µM (inactive) | > 100 µM (inactive) | –
27 | C/C(=N/NC(=O)c1ccccc1O)c1ccc(/C(C)=N\NC(=O)c2ccccc2O)c2nc3cc(C)c(C)cc3nc12 | > 100 µM (inactive) | > 100 µM (inactive) | 44.2 µM (inactive) | > 100 µM (inactive) | > 100 µM (inactive) | > 100 µM (inactive) | > 100 µM (inactive) | > 100 µM (inactive) | > 100 µM (inactive)
